Here are results for six substances from patent US5635483A, “Tumor inhibiting tetrapeptide bearing modified phenethyl amides” (priority 1992, dated 1997).

By TGI is commonly meant the concentration giving total growth inhibition. A low value points to greater sensitivity of the cells.

Holding throughout (type): cell-based
In one experiment the test system is SK-MEL-3. The experiment can be described thus: NCI human tumor cell line screen, melanoma SK-MEL-3. The note with it: for GI-50 / TGI: Human cancer cell; for LC-50: Human cancer cells. The text has this:
(§1) Current research in the control of cancer in the United States is coordinated by the National Cancer Institute (NCI). To determine whether a substance has anti-cancer properties, the NCI has established a systematic protocol. This protocol, which involves the testing of a substance against a standard cell line panel containing 60 human tumor cell lines, has been verified and has been accepted in scientific circles. The protocol, and the established statistical means for analyzing the results obtained by the standardized testing are fully described in the literature. See: Body, Dr. Michael R., Principles & Practice of Oncology, PPO Updates, Volume 3, Number 10, October 1989, for an in depth description of the testing protocol; and Paull, K. D., "Display and Analysis of Patterns of Differential Activity of Drugs Against Human Tumor Cell Lines; Development of Mean Graph and COMPARE Algorithm", Journal of the National Cancer Institute Reports, Vol. 81, No. 14, Page 1088, Jul. 14, 1989 for a description of the methods of statistical analysis. Both of these references are incorporated herein by this reference thereto.
(§2) The extraordinary inhibition of cell growth shown by the tetrapeptide 6a-k against six major types of human cancer and against the murine P388 lymphocytic leukemia cell line has been presented in Table 1-2, below.

The subject of the next experiment is SF-295. Kind of experiment: NCI human tumor cell line screen, CNS SF-295. The settings on record: for GI-50 / TGI: Human cancer cell; for LC-50: Human cancer cells.
Text: as §1, §2

A further experiment relates to A498. The experiment can be described thus: NCI human tumor cell line screen, renal A498. The note with it: for GI-50 / TGI: Human cancer cell; for LC-50: Human cancer cells.
Text: as §1, with “This protocol, which involves the testing of a substance against a standard cell line panel containing 60 human tumor cell lines, has been verified and has been accepted in scientific circles.” left out

Another experiment relates to NCI-460. The experiment can be described thus: NCI human tumor cell line screen, Lung-NSC NCI-460. The settings on record: for GI-50 / TGI: Human cancer cell; for LC-50: Human cancer cells.
Text: as §1, with “This protocol, which involves the testing of a substance against a standard cell line panel containing 60 human tumor cell lines, has been verified and has been accepted in scientific circles.” left out

The test system of the next experiment is OVCAR-3. The experiment can be described thus: NCI human tumor cell line screen, ovarian OVCAR-3. The note with it: for GI-50 / TGI: Human cancer cell; for LC-50: Human cancer cells.
Text: as §1, with “This protocol, which involves the testing of a substance against a standard cell line panel containing 60 human tumor cell lines, has been verified and has been accepted in scientific circles.” left out

The next experiment has as its system KM20L2. Kind of experiment: NCI human tumor cell line screen, colon KM20L2. The settings on record: for GI-50 / TGI: Human cancer cell; for LC-50: Human cancer cells.
Text: as §1, with “This protocol, which involves the testing of a substance against a standard cell line panel containing 60 human tumor cell lines, has been verified and has been accepted in scientific circles.” left out

For another experiment, the system named is P-388. The experiment can be described thus: Murine P388 lymphocytic leukemia cell growth inhibition. The settings on record: Mouse leukemia cell P-388.
Text: as §2

“And” between values parts separate entries of the source, which are not always exact repeats. Identical values can stand only once.

Take “[2S-[1 [1R*(R*),2S*],2R*[1S*,2S*]]]-N,N-dimethyl-L-valyl-N-[2-methoxy-4-[2-[1-methoxy-2-methyl-3-oxo-3-[[2-(4-bromo-phenyl)-ethyl]amino]propyl]-1-pyrrolidinyl-l-(methylpropyl)-4-oxo butyl]-N-methyl-L-valineamide [Peptide 6e]”: the GI-50 is 0.00038 µg/mL in the experiment with SK-MEL-3; 0.00043 µg/mL with SF-295; 0.00046 µg/mL in the experiment with A498; 0.00027 µg/mL in the experiment with NCI-460; 0.00015 µg/mL with OVCAR-3; 0.00032 µg/mL in the experiment with KM20L2. The concentration for total growth inhibition (TGI) in the experiment on SK-MEL-3 was > 10 ng/mL; with SF-295, > 10 ng/mL; with A498 it was > 10 ng/mL; with NCI-460, 1.2 ng/mL; in the experiment on OVCAR-3, 0.5 ng/mL; in the experiment with KM20L2, 4.1 ng/mL. Besides, the LC-50 in the experiment on SK-MEL-3 was > 0.01 µg/mL; in the experiment with SF-295, > 0.01 µg/mL; with A498 it was > 0.01 µg/mL; in the experiment with NCI-460, > 0.01 µg/mL; in the experiment with OVCAR-3, 0.0094 µg/mL; in the experiment with KM20L2, > 0.01 µg/mL. Also, the ED-50 in the experiment with P-388 turned out to be 0.00515 µg/mL.
For “[2S-[1 [1R*(R*),2S*],2R*[1S*, 2S*]]]-N,N-dimethyl-L-valyl-N-[2-methoxy-4-[2-[1-methoxy-2-methyl-3-oxo-3- [[2-(4-chlor-phenyl)-etthyl]amino]propyl]-1-pyrrolidinyl-1-(methylpropyl)-4-oxo butyl]-N-methyl-L-valineamide [Peptide 6d]”, the GI-50 in the experiment with SK-MEL-3 was 0.000044 µg/mL; with SF-295, 0.000046 µg/mL; with A498, 0.000059 µg/mL; with NCI-460, 0.000025 µg/mL; in the experiment with OVCAR-3, 0.000016 µg/mL; with KM20L2, 0.00033 µg/mL. Also, the total growth inhibition concentration (TGI) was > 10 ng/mL with SK-MEL-3; > 10 ng/mL in the experiment with SF-295; 2.8 ng/mL in the experiment on A498; 0.14 ng/mL in the experiment on NCI-460; 0.05 ng/mL with OVCAR-3; 2.9 ng/mL in the experiment on KM20L2. Moreover, the LC-50 was > 0.0001 µg/mL in the experiment with SK-MEL-3; > 0.0001 µg/mL with SF-295; > 0.0001 µg/mL in the experiment on A498; > 0.0001 µg/mL with NCI-460; 0.00096 µg/mL in the experiment on OVCAR-3; > 0.0001 µg/mL with KM20L2. The substance also yielded an ED-50 in the experiment on P-388 of 0.00372 µg/mL.
As to “[2S-[1[1R*(R*),2S*],2R*[1S*,2S*,3(1S*, 2S*)]]]-N,N-dimethyl-L-valyl-N-[2-methoxy-4-[2-[1-methoxy-2- methyl-3-oxo-3-[[1-phenyl-1-hydroxy-2-propyl]methylamino]propyl]- 1-pyrrolidinyl-1-(methylpropyl)-4-oxobutyl]-N-methyl-L-valineamide valineamide [Peptide 6h]”, the concentration for total growth inhibition (TGI) with SK-MEL-3 is > 10 ng/mL; in the experiment on SF-295 it was > 10 ng/mL; in the experiment on A498, > 10 ng/mL and 9.7 ng/mL; with NCI-460, 0.11 ng/mL; with KM20L2, 0.52 ng/mL. The LC-50 in the experiment on SK-MEL-3, in the experiment on SF-295, in the experiment with A498, in the experiment on NCI-460, in the experiment with OVCAR-3 and with KM20L2 was > 0.01 µg/mL in each case. The GI-50 in the experiment with SF-295 is 0.00031 µg/mL and 0.00034 µg/mL; in the experiment on NCI-460, 0.00006 µg/mL.
As for “[2S-[1[1R*(R*),2S*],2R*[1S*,2S*, 3(1R*, 2S*)]]]-N,N-dimethyl-L-valyl-N-[2-methoxy-4-[2-[1-methoxy-2- methyl-3-oxo-3-[[1-phenyl-1-hydroxy-2-propyl]amino]propyl]-1-pyrrolidinyl- 1-(methylpropyl)-4-oxobutyl]-N-methyl-L-valine amide [Peptide 6i]”, the GI-50 in the experiment on SK-MEL-3 came out at 0.00058 µg/mL; in the experiment on SF-295, 0.000016 µg/mL; in the experiment on A498, 0.0000027 µg/mL; with NCI-460, 0.000025 µg/mL; in the experiment with OVCAR-3, 0.000021 µg/mL; in the experiment on KM20L2, 0.00011 µg/mL. In addition, the TGI is > 10 ng/mL in the experiment with SK-MEL-3; 0.24 ng/mL in the experiment on SF-295; 0.0086 ng/mL in the experiment on A498; > 10 ng/mL in the experiment on NCI-460; 0.042 ng/mL with OVCAR-3; 7 ng/mL in the experiment with KM20L2. Besides, the LC-50 with SK-MEL-3 is > 0.01 µg/mL; in the experiment on SF-295, > 0.01 µg/mL; with A498 it was 0.00029 µg/mL; in the experiment with NCI-460 it was > 0.01 µg/mL; with OVCAR-3 it was 0.000088 µg/mL; in the experiment with KM20L2 it was > 0.01 µg/mL. The substance further gave an ED-50 in the experiment with P-388 of 0.000503 µg/mL.
For the substance “[2S-[1[1R*(R*),2S*],2R*[1S*,2S*, 3(1S*, 2R*)]]]-N,N-dimethyl-L-valyl-N-[2-methoxy-4-[2-[1-methoxy-2-methyl-3-oxo-3-[[1-phenyl-1-hydroxy-2-propyl]amino]propyl]-1-pyrrolidinyl-1-(methylpropyl)-4-oxobutyl]-N-methyl-L-valine amide [Peptide 6k]”, the GI-50 in the experiment on SK-MEL-3 was 0.00058 µg/mL; in the experiment with SF-295, 0.0006 µg/mL; in the experiment on A498 it was 0.00075 µg/mL; in the experiment on NCI-460, 0.0003 µg/mL; with OVCAR-3, 0.00017 µg/mL; in the experiment on KM20L2, 0.00029 µg/mL. The TGI was > 10 ng/mL with SK-MEL-3; > 10 ng/mL in the experiment with SF-295; > 10 ng/mL with A498; 1 ng/mL in the experiment on NCI-460; 0.53 ng/mL with OVCAR-3; 1.3 ng/mL with KM20L2. Further, the LC-50 in the experiment on SK-MEL-3, in the experiment with SF-295, with A498, in the experiment on NCI-460, in the experiment on OVCAR-3 and in the experiment with KM20L2 was > 0.01 µg/mL throughout. In the experiment on P-388, the ED-50 amounted to 0.000434 µg/mL.
As for “[2S-[1[1R*(R*),2S*],2R*[1S*,2S*]]]-N,N-dimethyl-L-valyl-N-[2-methoxy-4-[2- [1-methoxy-2-methyl-3-oxo-3-[[2-(3-chlor-phenyl)-ethyl]amino]propyl]-1-pyrrolidinyl-1-(methylpropyl)-4-oxo butyl]-N-methyl-L-valineamide [Peptide 6f]”, the GI-50 in the experiment with SK-MEL-3 was < 0.000001 µg/mL; in the experiment on SF-295, 0.000028 µg/mL; with A498 it was < 0.000001 µg/mL; with NCI-460 it was < 0.000001 µg/mL; in the experiment on OVCAR-3 it was < 0.000001 µg/mL; in the experiment on KM20L2 it was 0.0000007 µg/mL. Besides, the TGI is > 10 ng/mL in the experiment on SK-MEL-3; > 10 ng/mL with SF-295; 1.7 ng/mL with A498; 0.1 ng/mL in the experiment with NCI-460; < 0.001 ng/mL in the experiment with OVCAR-3; 1.7 ng/mL in the experiment on KM20L2. The LC-50 in the experiment on SK-MEL-3 is > 0.01 µg/mL; in the experiment on SF-295, > 0.01 µg/mL; in the experiment on A498, > 0.01 µg/mL; in the experiment with NCI-460, > 0.01 µg/mL; in the experiment with OVCAR-3, 0.00076 µg/mL; in the experiment on KM20L2, > 0.01 µg/mL. In the experiment on P-388, this substance had an ED-50 of 0.00225 µg/mL.
